Source: the supplement of paper PMC9663587

Key:
[1] = compound: CO[C@@H](C)Cn1c(=O)n(C)c2cnc3ccc(-c4cncc(C(C)(C)O)c4)cc3c21
Flavopiridol [2] = compound: T1, CN1CC[C@H](c2c(O)cc(O)c3c(=O)cc(-c4ccccc4Cl)oc23)[C@H](O)C1 [Flavopiridol]
Taselisib/GDC0032 = compound: Cc1nc(-c2cn3c(n2)-c2ccc(-c4cnn(C(C)(C)C(N)=O)c4)cc2OCC3)n(C(C)C)n1 [Taselisib/GDC0032]
Saracatinib/AZD0530 = compound: CN1CCN(CCOc2cc(OC3CCOCC3)c3c(Nc4c(Cl)ccc5c4OCO5)ncnc3c2)CC1 [Saracatinib/AZD0530]
ABT-737 = compound: CN(C)CC[C@H](CSc1ccccc1)Nc1ccc(S(=O)(=O)NC(=O)c2ccc(N3CCN(Cc4ccccc4-c4ccc(Cl)cc4)CC3)cc2)cc1[N+](=O)[O-] [ABT-737]
LEE011/Ribociclib = compound: CN(C)C(=O)c1cc2cnc(Nc3ccc(N4CCNCC4)cn3)nc2n1C1CCCC1 [LEE011/Ribociclib]; test: GR value, 72 h; higher = faster growth (1 = untreated, <0 = killing);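 further: breast cancer and non-malignant breast epithelial lines, nine half-log doses, viable cells counted by Hoechst and LIVE/DEAD dye imaging versus time-zero plates and DMSO controls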
YKL-5-124 = compound: C=CC(=O)Nc1ccc(C(=O)Nc2[nH]nc3c2CN(C(=O)N[C@H](CN(C)C)c2ccccc2)C3(C)C)cc1 [YKL-5-124]; test: as above
[3] = compound: CC(=O)c1c(C)c2cnc(Nc3ccc(N4CCNCC4)cn3)nc2n(C2CCCC2)c1=O; test: as above
[4] = compound: CCc1cnn2c(NCc3ccc[n+]([O-])c3)cc(N3CCCC[C@H]3CCO)nc12; test: as above
Flavopiridol [5] = compound: T1, Flavopiridol; test: as above
Neratinib/HKI272 = compound: CCOc1cc2ncc(C#N)c(Nc3ccc(OCc4ccccn4)c(Cl)c3)c2cc1NC(=O)/C=C/CN(C)C [Neratinib/HKI272]; test: as above
THZ1 = compound: CN(C)C/C=C/C(=O)Nc1ccc(C(=O)Nc2cccc(Nc3ncc(Cl)c(-c4c[nH]c5ccccc45)n3)c2)cc1 [THZ1]; test: as above
BSJ-03-123 = compound: CC(=O)c1c(C)c2cnc(Nc3ccc(N4CCN(CCOCCOCCOCCNC(=O)COc5cccc6c5C(=O)N(C5CCC(=O)NC5=O)C6=O)CC4)cn3)nc2n(C2CCCC2)c1=O [BSJ-03-123]; test: as above
[6] = compound: CCN1CCN(Cc2ccc(Nc3ncc(F)c(-c4cc(F)c5nc(C)n(C(C)C)c5c4)n3)nc2)CC1; test: as above
THZ531 = compound: CN(C)C/C=C/C(=O)Nc1ccc(C(=O)N2CCC[C@@H](Nc3ncc(Cl)c(-c4c[nH]c5ccccc45)n3)C2)cc1 [THZ531]; test: as above
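Wherever GR50, 72 h is given: breast cancer and non-malignant breast epithelial cell lines, Deep Dye Drop or Dye Drop imaging, nine half-log doses, GR normalized to time-zero plates and DMSO-only controls.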

MCF12A
GR50, 72 h [1]: 0.167 µM
GR50, 72 h (Flavopiridol [2]): 0.38 µM
GR50, 72 h (Taselisib/GDC0032): 1.11 µM
GR50, 72 h (Saracatinib/AZD0530): 9.02 µM
GR50, 72 h (ABT-737): > 10 µM
GR value (LEE011/Ribociclib; 0.001 µM): 0.967 GR
GR value (LEE011/Ribociclib; 0.003162 µM): 0.953 GR
GR value (LEE011/Ribociclib; 0.01 µM): 0.948 GR
GR value (LEE011/Ribociclib; 0.03162 µM): 0.927 GR
GR value (LEE011/Ribociclib; 0.1 µM): 0.984 GR
GR value (LEE011/Ribociclib; 0.3162 µM): 0.897 GR
GR value (LEE011/Ribociclib; 1 µM): 0.867 GR
GR value (LEE011/Ribociclib; 3.162 µM): 0.914 GR
GR value (LEE011/Ribociclib; 10 µM): 0.792 GR
GR value (YKL-5-124; 0.001 µM): 0.573 GR
GR value (YKL-5-124; 0.003162 µM): 0.316 GR
GR value (YKL-5-124; 0.01 µM): 0.235 GR
GR value (YKL-5-124; 0.03162 µM): 0.17 GR
GR value (YKL-5-124; 0.1 µM): 0.135 GR
GR value (YKL-5-124; 0.3162 µM): 0.153 GR
GR value (YKL-5-124; 1 µM): 0.131 GR
GR value (YKL-5-124; 3.162 µM): 0.107 GR
GR value (YKL-5-124; 10 µM): 0.0273 GR
GR value ([3]; 0.0003162 µM): 1.04 GR
GR value ([3]; 0.001 µM): 1.03 GR
GR value ([3]; 0.003162 µM): 1.02 GR
GR value ([3]; 0.01 µM): 0.974 GR
GR value ([3]; 0.03162 µM): 0.921 GR
GR value ([3]; 0.1 µM): 0.889 GR
GR value ([3]; 0.3162 µM): 0.912 GR
GR value ([3]; 1 µM): 0.758 GR
GR value ([3]; 3.162 µM): 0.667 GR
GR value ([4]; 0.0001 µM): 1.03 GR
GR value ([4]; 0.0003162 µM): 0.99 GR
GR value ([4]; 0.001 µM): 1.03 GR
GR value ([4]; 0.003162 µM): 1.03 GR
GR value ([4]; 0.01 µM): 1.08 GR
GR value ([4]; 0.03162 µM): 0.685 GR
GR value ([4]; 0.1 µM): -0.289 GR
GR value ([4]; 1 µM): -0.327 GR
GR value (Flavopiridol [5]; 0.0001 µM): 1.04 GR
GR value (Flavopiridol [5]; 0.0003162 µM): 0.977 GR
GR value (Flavopiridol [5]; 0.001 µM): 0.895 GR
GR value (Flavopiridol [5]; 0.003162 µM): 0.982 GR
GR value (Flavopiridol [5]; 0.01 µM): 0.961 GR
GR value (Flavopiridol [5]; 0.03162 µM): 0.949 GR
GR value (Flavopiridol [5]; 0.1 µM): 0.856 GR
GR value (Flavopiridol [5]; 0.3162 µM): 0.621 GR
GR value (Flavopiridol [5]; 1 µM): -0.121 GR
GR value (Neratinib/HKI272; 0.0003162 µM): 1.07 GR
GR value (Neratinib/HKI272; 0.001 µM): 0.998 GR
GR value (Neratinib/HKI272; 0.003162 µM): 1.01 GR
GR value (Neratinib/HKI272; 0.01 µM): 1.04 GR
GR value (Neratinib/HKI272; 0.03162 µM): 1.03 GR
GR value (Neratinib/HKI272; 0.1 µM): 0.893 GR
GR value (Neratinib/HKI272; 0.3162 µM): 0.546 GR
GR value (Neratinib/HKI272; 1 µM): 0.336 GR
GR value (Neratinib/HKI272; 3.162 µM): 0.0907 GR
GR value (THZ1; 0.0001 µM): 0.997 GR
GR value (THZ1; 0.0003162 µM): 0.989 GR
GR value (THZ1; 0.001 µM): 1 GR
GR value (THZ1; 0.003162 µM): 0.958 GR
GR value (THZ1; 0.01 µM): 0.984 GR
GR value (THZ1; 0.03162 µM): 0.851 GR
GR value (THZ1; 0.1 µM): 0.569 GR
GR value (THZ1; 0.3162 µM): 0.338 GR
GR value (THZ1; 1 µM): -0.312 GR
GR value (BSJ-03-123; 0.001 µM): 0.975 GR
GR value (BSJ-03-123; 0.003162 µM): 0.912 GR
GR value (BSJ-03-123; 0.01 µM): 0.971 GR
GR value (BSJ-03-123; 0.03162 µM): 0.952 GR
GR value (BSJ-03-123; 0.1 µM): 0.98 GR
GR value (BSJ-03-123; 0.3162 µM): 0.942 GR
GR value (BSJ-03-123; 1 µM): 0.883 GR
GR value (BSJ-03-123; 3.162 µM): 0.753 GR
GR value (BSJ-03-123; 10 µM): 0.126 GR
GR value ([6]; 0.001 µM): 0.987 GR
GR value ([6]; 0.003162 µM): 0.945 GR
GR value ([6]; 0.01 µM): 0.955 GR
GR value ([6]; 0.03162 µM): 0.943 GR
GR value ([6]; 0.1 µM): 0.872 GR
GR value ([6]; 0.3162 µM): 0.822 GR
GR value ([6]; 1 µM): 0.727 GR
GR value ([6]; 3.162 µM): 0.616 GR
GR value ([6]; 10 µM): 0.386 GR
GR value (THZ531; 0.0001 µM): 0.942 GR
GR value (THZ531; 0.0003162 µM): 1.02 GR
GR value (THZ531; 0.001 µM): 1 GR
GR value (THZ531; 0.003162 µM): 0.929 GR
GR value (THZ531; 0.01 µM): 1.01 GR
GR value (THZ531; 0.03162 µM): 0.967 GR
GR value (THZ531; 0.1 µM): 1 GR
GR value (THZ531; 0.3162 µM): 0.894 GR
GR value (THZ531; 1 µM): -0.0356 GR
